Results from patent US20250332173A1, “COMPOUNDS AND METHODS FOR MODULATING NUCLEIC ACID SPLICING” (REMIX THERAPEUTICS INC., priority 2021, published 2025).
Like-named read-outs stand apart in the source and are kept apart here.

Assays:
Assay type in all cases: cell-based, human
MYB mRNA = test: RT-qPCR splicing assay, MYB canonical junction (CJ) and alternative junction (AJ) mRNA; settings: Homo sapiens; for AC50: increase in MYB alternative junction (AJ) mRNA, read-out: MYB AJ AC50
How it was run: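 A673 or K562 cells were treated for 24 h at 37 °C with an 11-point 3-fold compound dilution series (top final concentration 10 uM, DMSO ≤0.25%). After lysis, one-step TaqMan RT-qPCR quantified junction transcripts, normalized to PPIA for A673 or to GAPDH/GUSB for K562.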

MYB = test: HiBiT protein abundance assay, MYB HiBiT K562 cell line; settings: 24 hours, top dose 10 μM
How it was run: (§1)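 Endogenous targets in K562 knock-in lines carried a HiBiT tag and were treated for 24 h at 37 °C with 10-point 3-fold dilutions (top 10 μM final, DMSO ≤0.25%). Abundance was read as lytic Nano-Glo HiBiT luminescence. IC50 came from a four-parameter logistic fit of normalized response.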

HTT = test: HiBiT protein abundance assay, HTT HiBiT K562 cell line; settings: 24 hours, top dose 10 μM
How it was run: as §1

[1] = canonical junction qPCR panel, Table 5, read-out: MYB (decrease in CJ mRNA levels, IC50)
[2] = decrease in MYB canonical junction (CJ) mRNA, RT-qPCR, read-out: MYB CJ IC50
[3] = Table 5 panel, canonical junction qPCR, compound concentration having 50% response in CJ decrease, read-out: MYB IC50 (decrease in CJ mRNA levels)
[4] = HiBiT K562 cell line, read-out: Effect on protein abundance, MYB (IC50 category)
[5] = HiBiT K562 cell line, read-out: Effect on protein abundance, HTT (IC50 category)

SMILES | IC50 (MYB mRNA; [1]) [nM] | IC50 (MYB mRNA; [2]) [nM] | AC50 (MYB mRNA; RT-qPCR) [nM] | IC50 (MYB; HiBiT lytic detection, modified K562 cells, read-out: Effect on protein abundance, MYB (IC50)) [nM] | IC50 (HTT; HiBiT lytic detection, modified K562 cells, read-out: Effect on protein abundance, HTT (IC50)) [nM] | IC50 (MYB mRNA; [3]) [nM] | IC50 (MYB; [4]) [nM] | IC50 (HTT; [5]) [nM]
CN1CCC(n2ncc3nc(-c4cc5cn(C)nc5cc4O)ccc3c2=O)CC1 [Compound 1307] | 1000 to 10000 | 1000 to 10000 | 1000 to 10000 | 1000 to 10000 | 1000 to 10000 | – | – | –
Cc1cn2nc(-c3ccc4c(c3F)CCN(C3CCNCC3)C4=O)cc(C)c2n1 [Compound 188] | – | 100 to 1000 | 1000 to 10000 | – | – | 1000 to 10000 | 100 to 1000 | 1000 to 10000
Cc1cc(-c2cc3ccn(C4CCNCC4)c(=O)c3cn2)cc2cn(C)nc12 [Compound 1204, 6-(2,7-dimethyl-2H-indazol-5-yl)-2-(piperidin-4-yl)-2,7-naphthyridin-1(2H)-one] | – | 100 to 1000 | 100 to 1000 | – | – | 100 to 1000 | 100 to 1000 | 100 to 1000
Cc1cn2cc(-c3ncc4c(=O)n(C5CCNCC5)ccc4n3)cc(C#N)c2n1 [Compound 1301] | 100 to 1000 | 100 to 1000 | 100 to 1000 | – | – | – | 100 to 1000 | 100 to 1000
Cc1cn2cc(-c3ncc4c(=O)n(C5CCNC5)ccc4n3)c(O)c(C)c2n1 (stereo not shown) [Compound 1227] | – | 1000 to 10000 | 1000 to 10000 | – | – | 1000 to 10000 | 1000 to 10000 | > 10000
Cc1cc(-c2cc3ccn(C4CCN(C5CC5)CC4)c(=O)c3cn2)cc2cn(C)nc12 [Compound 1208, 2-(1-cyclopropylpiperidin-4-yl)-6-(2,7-dimethyl-2H-indazol-5-yl)-2,7-naphthyridin-1(2H)-one] | – | 1000 to 10000 | 1000 to 10000 | – | – | 1000 to 10000 | 1000 to 10000 | > 10000
Cc1c(O)c(-c2ncc3c(=O)n([C@H]4C[C@H](N)C4)ccc3n2)cc2cn(C)nc12 [Compound 1432, 6-((1r,3r)-3-aminocyclobutyl)-2-(6-hydroxy-2,7-dimethyl-2H-indazol-5-yl)pyrido[4,3-d]pyrimidin-5(6H)-one] | 100 to 1000 | 100 to 1000 | 100 to 1000 | – | – | – | 100 to 1000 | 1000 to 10000
Cc1c(O)c(-c2ccc3c(=O)n([C@H]4CCNC4)ccc3n2)cc2cn(C)nc12 [Compound 1449, 2-(6-hydroxy-2,7-dimethyl-indazol-5-yl)-6-[(3S)-pyrrolidin-3-yl]-1,6-naphthyridin-5-one] | 100 to 1000 | 100 to 1000 | 100 to 1000 | – | – | – | 100 to 1000 | 1000 to 10000
CN1CCC(Nc2ccc3c(=O)n(-c4ccc5cn(C)nc5c4)cnc3c2)CC1 [Compound 203] | – | > 10000 | > 10000 | – | – | > 10000 | > 10000 | > 10000
Cc1cn2cc(-c3ncc4c(=O)n(C5CCNC5)ccc4n3)cc(F)c2n1 (stereo not shown) [Compound 1215] | – | 1000 to 10000 | 100 to 1000 | – | – | 100 to 1000 | 100 to 1000 | > 10000
Cc1cn2cc(-c3ccc4c(=O)n(C5CCNCC5)ccc4n3)cc(C#N)c2n1 [Compound 1297] | 100 to 1000 | 100 to 1000 | 100 to 1000 | – | – | – | 100 to 1000 | 100 to 1000
Cc1c(O)c(-c2ncc3c(=O)n([C@@H]4CCN[C@H](C)C4)ccc3n2)cc2cn(C)nc12 [Compound 1434, 2-(6-hydroxy-2,7-dimethyl-indazol-5-yl)-6-(2-methyl-4-piperidyl)pyrido[4,3-d]pyrimidin-5-one] | 100 to 1000 | 100 to 1000 | 100 to 1000 | – | – | – | 100 to 1000 | 100 to 1000
Cc1cn2cc(-c3ccc4c(=O)n(C5CCNCC5)ccc4n3)c(O)cc2n1 [Compound 1240] | 1000 to 10000 | 1000 to 10000 | 1000 to 10000 | – | – | – | > 10000 | > 10000
Cc1c(O)c(-c2ccc3c(=O)n(C4CCNCC4)cc(C)c3n2)cc2cn(C)nc12 [Compound 1284] | < 100 | < 100 | < 100 | – | – | – | < 100 | < 100
Cc1c(O)c(-c2ncc3c(=O)n(C4CCNC4)ccc3n2)cc2cn(C)nc12 (stereo in doubt) [Compound 1439, (6R)-2-(6-hydroxy-2,7-dimethyl-indazol-5-yl)-6-pyrrolidin-3-yl-pyrido[4,3-d]pyrimidin-5-one] | 100 to 1000 | 100 to 1000 | 100 to 1000 | – | – | – | 100 to 1000 | 1000 to 10000
Cc1c(O)c(-c2ncc3c(=O)n(C4CCNC(C)(C)C4)ccc3n2)cc2cn(C)nc12 (stereo not shown) [Compound 1442] | 100 to 1000 | < 100 | 100 to 1000 | – | – | – | < 100 | 100 to 1000
Cc1cc(-c2cc3ccn(C4CCN(C5COC5)CC4)c(=O)c3cn2)cc2cn(C)nc12 [Compound 1209, 6-(2,7-dimethyl-2H-indazol-5-yl)-2-(1-(oxetan-3-yl)piperidin-4-yl)-2,7-naphthyridin-1(2H)-one-1] | – | 100 to 1000 | 100 to 1000 | – | – | 100 to 1000 | 100 to 1000 | 100 to 1000
Cc1cn2cc(-c3cc4ccn(C5CCNCC5)c(=O)c4cn3)nc(C)c2n1 [Compound 1205, 6-(2,8-dimethylimidazo[1,2-a]pyrazin-6-yl)-2-(piperidin-4-yl)-2,7-naphthyridin-1(2H)-one] | – | 100 to 1000 | 100 to 1000 | – | – | 100 to 1000 | 100 to 1000 | 100 to 1000
Cc1cn2nc(-c3cc4ccn(C5CCNCC5)c(=O)c4cn3)cc(C)c2n1 [Compound 1198, 6-(2,8-dimethylimidazo[1,2-b]pyridazin-6-yl)-2-(piperidin-4-yl)-2,7-naphthyridin-1(2H)-one] | – | 100 to 1000 | 100 to 1000 | – | – | 100 to 1000 | 100 to 1000 | 100 to 1000
CCN1CCC(n2ccc3cc(-c4cc(C)c5nn(C)cc5c4)ncc3c2=O)CC1 [Compound 1207, 6-(2,7-dimethyl-2H-indazol-5-yl)-2-(1-ethylpiperidin-4-yl)-2,7-naphthyridin-1(2H)-one] | – | 1000 to 10000 | 1000 to 10000 | – | – | 1000 to 10000 | 1000 to 10000 | 1000 to 10000
